Results: patent EP4623928A1, “GLP-1R ANTAGONISTS FOR THE TREATMENT OF CANCER” (Fiorina, Paolo, priority 2024, dated 2025)

Tests used:
Format in all cases: cell-based, C57BL/6 mice
CD4^+ and CD8^+ T cells = test: Cell death and proliferation of CD4+ and CD8+ T cells in splenocytes activated with anti-CD3/anti-CD28 (FACS); settings: anti-CD3/anti-CD28 activated splenocytes
[1] = system: GLP-1R^pos and GLP-1R^neg CD3^+ T cells; test: Proliferation, apoptosis and IFN-γ expression of GLP-1Rpos and GLP-1Rneg CD3+ T cells stimulated with anti-CD3/anti-CD28; settings: for proliferation rate: anti-CD3/anti-CD28
Protocol: FACS analysis was performed with a FACSCelesta (BD Bioscience) on murine splenocytes or on single cells suspension prepared upon collagenase-digestion of grafted organs. We used the following antibodies: APC conjugated Rat anti-mouse CD62L, PE conjugated Rat anti-mouse CD44, PerCp conjugated Rat anti-mouse CD4 or PerCp conjugated Rat anti-mouse CD8, (Biolegend, San Diego, CA, USA), and APC conjugated anti-mouse/human insulin (R&D, Minneapolis, MN - USA). GLP-1R was detected by indirect staining; the primary antibody was purchased from Alomone Lab (Jerusalem, Israel) and variably associated with FITC or APC-conjugated anti-isotype Ab (BD and Biolegend respectively). For intracellular staining, splenocytes were isolated from BL6 mice were incubated with and w/o anti CD3/CD28 used both at 0.5 µg/ml, Exe-4 (0.1nM, 1nM and 10nM) or with Exe-4+Exe-9-39 (0.1nM, 1nM and 10nM). After 24hours incubation, cells were collected, washed and plated in RPMI 10% FBS, then stimulated with 50 ng/ml PMA (Sigma Aldrich), 500 ng/ml ionomycin (Sigma Aldrich) and Golgi Stop as recommended by the manufacturer (BD Biosciences, San Diego, CA, USA) for 4h in a humidified incubator 37°C, 5% CO2. After incubation, cells were collected, washed and stained for surface markers, i.e CD4 BUV737, CD8 BUV395, (BD Biosciences, San Diego, CA, USA) and GLP-1R FITC (Alomone Lab, Jerusalem, Israel). They were further fixed, permeabilized using the BD Cytofix/Cytoperm Kit (BD Biosciences, San Diego, CA, USA), and stained with a mAb against IFN-γ (eBioscience). Finally, CD4^+ GLP-1R^+ IFN-γ^+ and CD8^+ GLP-1R^+ IFN-γ ^+ T cells were assessed by flow cytometry analysis. For the expression of GLP-1R on innate immune cells, the following antibodies were used: CD4 BB700, NK1.1 BV421, CD127 BV605, CD44 PE, GLP-1R FITC/PD1 FITC, Viability Dye BV510 (NKT subset); CD45 BV786, CD3 BB700, NK1.1 BV421, GLP-1R FITC/PD1 FITC, Viability Dye BV510 (NK subset); CD45 BB700, CD11c BV786, CD11b BV421, GLP-1R FITC/PD1 FITC, Viability Dye BV510; CD45 PE-CF594, CD127 BV605, NK1.1 BV421, CD335 BV786, CD49a BV650, CD117 BB700, IL33R PE, IL23R BV711, GLP-1R FITC/PD1 FITC, Viability Dye BV510 (LCs subset). For the determination of the chemokine receptors profile of GLP-1R^+ CD3^+ T cells, the following antibodies were used: GLP-1R FITC, CXCR4 PE, CX3CR1 BV605, CCR2 BV421, CCR5 BV650, CCR7 BV786, CXCR3 BB700, CXCR6 BV711, Viability Dye BV510.

[2] = system: GLP-1R^pos and GLP-1R^neg CD3^+ T cells; test: Seahorse bioenergetic analysis, GLP-1Rpos and GLP-1Rneg CD3+ T cells; settings: GLP-1R^pos CD3^+ T cells, Exe-4 (1 nM)
Protocol: Cellular Bioenergetics were analyzed using the Seahorse Extracellular Flux Analyzer Xfe96 (Agilent Technologies, Santa Clara, CA, United States), which simultaneously measures Oxygen Consumption Rate (OCR, pmolO2/min), ExtraCellular Acidification Rate (ECAR, mpH/min) and Proton Efflux Rate (PER, pmolH^+/min). For Seahorse experiments 150.000 cells either freshly isolated GLP-1R^pos or GLP-1R^neg CD3^+ T cells or activated with soluble anti-CD3/CD28 at 0.5 µg/ml each in the presence or not of Exe-4 (1 nM); in another setting untransduced mock CD3^+ T cells or pmY-GLP-1R CD3^+ T cells already activated with soluble anti-CD3/CD28 at 0.5 µg/ml each in the presence or not of Exe-4 (1 nM). Cells were resuspended in 50 µL assay medium (Agilent #103576-100 RPMI Medium pH7.4, supplemented with 10mM glucose, 2mM glutamine and 1mM Na-pyruvate) were seeded in each CellTak-precoated well of an Agilent Xfe96 Pro well plate. The cell plate was centrifuged 2 times at 40 × g (zero braking) for 1 minute. After centrifugation, 150 µL warm assay medium was gently added to each well. […]
Seahorse parameters were normalized to cell number in each well. To this purpose, at the end of the Seahorse analysis, cell nuclei were stained with Hoechst 33342 (1 µg/mL) for about 15 min, imaged and counted with Operetta CLS™ software Harmony, as previously described (43). […]

Substance: Exendin-4 [Exe-4]
- cell death of CD4^+ and CD8^+ T cells (CD4^+ and CD8^+ T cells; Exe-4 alone (1 nM)): significant increase
- proliferation of CD4^+ and CD8^+ T cells (CD4^+ and CD8^+ T cells; Exe-4 alone): no effect
- proliferation rate ([1]; GLP-1R^neg CD3^+ T cells, Exe-4 (1 nM)): but not of GLP-1R^neg CD3^+ T cells
- proliferation rate ([1]; GLP-1R^pos CD3^+ T cells, Exe-4 (1 nM)): slightly modulated
- IFN-y expression ([1]; GLP-1R^pos and GLP-1R^neg CD3^+ T cells, Exe-4 (1 nM)): no evident effect
- apoptosis (GLP-1R^pos more apoptotic than GLP-1R^neg) ([1]; GLP-1R^pos vs GLP-1R^neg CD3^+ T cells, with or without Exe-4): independently of Exe-4 treatment
- mitochondrial ATP production [2]: no effect
- mitochondrial respiration (OCR values, maximal OXPHOS) [2]: slightly increased
